Data published in patent US20260070945A1, “MACROCYCLIC IMMUNOMODULATORS” (Bristol-Myers Squibb Company, priority 2022, published 2026).
pIC50: −log10 of the molar value. Where a SMILES comes first, the peptide text is derived from it. Bridges are numbered along the chain shown (N, C = ends). [ ]: non-standard residue; d: D form. The star is where a group is joined. Bip = N[C@@H](Cc1ccc(-c2ccccc2)cc1)C(=O)O; Cha = N[C@@H](CC1CCCCC1)C(=O)O; Carboxymethyl = O=C(O)C*; NMeA = CN[C@@H](C)C(=O)O; Orn = NCCC[C@H](N)C(=O)O; Aun = NCCCCCCCCCCC(=O)O; Dab = NCC[C@H](N)C(=O)O; AEEA = NCCOCCOCC(=O)O

These compounds were tested against T1, PD-1/PD-L1 interaction (PE-labeled human PD-L1-Ig binding to Jurkat cell line over-expressing human PD-1) (Homo sapiens, UniProt Q15116) (assay: Jurkat-PD-1 Cell Binding High-Content Screening Assay (CBA)). Settings: Jurkat-hPD-1 cells, PE-labeled PD-L1-Ig 20 nM final; read-out: Jurkat HPD1 PDL1 IC50.
T1 construct: expressed in transfected cells; host or cells: Jurkat
T1 sequence (Q15116 25-288): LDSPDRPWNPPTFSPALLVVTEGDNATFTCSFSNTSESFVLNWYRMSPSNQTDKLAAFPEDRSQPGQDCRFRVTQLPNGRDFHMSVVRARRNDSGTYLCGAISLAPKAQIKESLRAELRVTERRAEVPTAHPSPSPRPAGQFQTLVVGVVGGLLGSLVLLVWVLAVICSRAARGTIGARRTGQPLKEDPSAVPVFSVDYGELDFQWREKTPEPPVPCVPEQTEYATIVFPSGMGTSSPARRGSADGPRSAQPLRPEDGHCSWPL
Method in brief: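 Read-out: high-content imaging of cell-bound PE fluorescence, with Hoechst 33342 nuclear counterstain after paraformaldehyde fixation. Before labeled ligand (20 nM final, 1 h) was added, compound sat on the cells for 2 h at 37 °C in DMEM/10% FCS.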

| SMILES | pIC50 |
| --- | --- |
| CC(C)C[C@H]1NC(=O)[C@H](C)N(C)C(=O)[C@H](Cc2ccc(OCC(=O)O)cc2)NC(=O)[C@H](Cc2ccc(-c3ccccc3)cc2)NC(=O)[C@H](Cc2ccc(OCC(=O)O)cc2)NC(=O)[C@H](Cc2c[nH]c3ccccc23)NC(=O)[C@H](CC(=O)O)NC(=O)[C@H](Cc2ccc(OCC(=O)O)cc2)NC(=O)[C@H]([C@@H](C)O)NC(=O)CSC[C@@H](C(=O)N[C@@H](CCCN)C(=O)NCCOCCOCC(=O)NCCCCCCCCCCC(=O)O)NC(=O)[C@H](CCC(=O)O)NC(=O)[C@H](C(C)C)NC(=O)[C@H](CC2CCCCC2)NC(=O)[C@H](CC(N)=O)NC1=O [Example 1388] ({CH2CO}-TY(Carboxymethyl)DWY(Carboxymethyl)[Bip]Y(Carboxymethyl)[NMeA][dL]N[Cha]VEC[Orn][AEEA][Aun]-OH; thioether N-14) | 6.18 |
| CC(C)C[C@H]1NC(=O)[C@H](C)N(C)C(=O)[C@H](Cc2ccc(OCC(=O)O)cc2)NC(=O)[C@H](Cc2ccc(-c3ccccc3)cc2)NC(=O)[C@H](Cc2ccc(OCC(=O)O)cc2)NC(=O)[C@H](Cc2c[nH]c3ccccc23)NC(=O)[C@H](CC(=O)O)NC(=O)[C@H](Cc2ccc(OCC(=O)O)cc2)NC(=O)[C@H]([C@@H](C)O)NC(=O)CSC[C@@H](C(=O)N[C@@H](CCCN)C(=O)NCCOCCOCC(=O)NCCCCCCCCCCC(=O)O)NC(=O)[C@H](CO)NC(=O)[C@H](C(C)C)NC(=O)[C@H](CC2CCCCC2)NC(=O)[C@H](CC(N)=O)NC1=O [Example 1389] ({CH2CO}-TY(Carboxymethyl)DWY(Carboxymethyl)[Bip]Y(Carboxymethyl)[NMeA][dL]N[Cha]VSC[Orn][AEEA][Aun]-OH; thioether N-14) | 6.64 |
| CC(C)C[C@H]1NC(=O)[C@H](C)N(C)C(=O)[C@H](Cc2ccc(OCC(=O)O)cc2)NC(=O)[C@H](Cc2ccc(-c3ccccc3)cc2)NC(=O)[C@H](Cc2ccc(OCC(=O)O)cc2)NC(=O)[C@H](Cc2c[nH]c3ccccc23)NC(=O)[C@H](CC(=O)O)NC(=O)[C@H](Cc2ccc(OCC(=O)O)cc2)NC(=O)[C@H]([C@@H](C)O)NC(=O)CSC[C@@H](C(=O)N[C@@H](CCN)C(=O)NCCOCCOCC(=O)NCCCCCCCCCCC(=O)O)NC(=O)[C@H]([C@@H](C)O)NC(=O)[C@H](C(C)C)NC(=O)[C@H](CC2CCCCC2)NC(=O)[C@H](CCN)NC1=O [Example 1390] ({CH2CO}-TY(Carboxymethyl)DWY(Carboxymethyl)[Bip]Y(Carboxymethyl)[NMeA][dL][Dab][Cha]VTC[Dab][AEEA][Aun]-OH; thioether N-14) | 7.56 |
| CC(C)C[C@H]1NC(=O)[C@H](C)N(C)C(=O)[C@H](Cc2ccc(OCC(=O)O)cc2)NC(=O)[C@H](Cc2ccc(-c3ccccc3)cc2)NC(=O)[C@H](Cc2ccc(OCC(=O)O)cc2)NC(=O)[C@H](Cc2c[nH]c3ccccc23)NC(=O)[C@H](CC(=O)O)NC(=O)[C@H](Cc2ccc(OCC(=O)O)cc2)NC(=O)[C@H]([C@@H](C)O)NC(=O)CSC[C@@H](C(=O)N[C@@H](CCN)C(=O)NCCOCCOCC(=O)NCCCCCCCCCCC(=O)O)NC(=O)[C@H](CO)NC(=O)[C@H](C(C)C)NC(=O)[C@H](CC2CCCCC2)NC(=O)[C@H](CCN)NC1=O [Example 1391] ({CH2CO}-TY(Carboxymethyl)DWY(Carboxymethyl)[Bip]Y(Carboxymethyl)[NMeA][dL][Dab][Cha]VSC[Dab][AEEA][Aun]-OH; thioether N-14) | 7.59 |
| CC(C)C[C@H]1NC(=O)[C@H](C)N(C)C(=O)[C@H](Cc2ccc(OCC(=O)O)cc2)NC(=O)[C@H](Cc2ccc(-c3ccccc3)cc2)NC(=O)[C@H](Cc2ccc(OCC(=O)O)cc2)NC(=O)[C@H](Cc2c[nH]c3ccccc23)NC(=O)[C@H](CC(=O)O)NC(=O)[C@H](Cc2ccc(OCC(=O)O)cc2)NC(=O)[C@H]([C@@H](C)O)NC(=O)CSC[C@@H](C(=O)N[C@@H](CCN)C(=O)NCCOCCOCC(=O)NCCCCCCCCCCC(=O)O)NC(=O)[C@H](CCC(=O)O)NC(=O)[C@H](C(C)C)NC(=O)[C@H](CC2CCCCC2)NC(=O)[C@H](CCN)NC1=O [Example 1392] ({CH2CO}-TY(Carboxymethyl)DWY(Carboxymethyl)[Bip]Y(Carboxymethyl)[NMeA][dL][Dab][Cha]VEC[Dab][AEEA][Aun]-OH; thioether N-14) | 7.20 |
| CC(C)C[C@H]1NC(=O)[C@H](C)N(C)C(=O)[C@H](Cc2ccc(OCC(=O)O)cc2)NC(=O)[C@H](Cc2ccc(-c3ccccc3)cc2)NC(=O)[C@H](Cc2ccc(OCC(=O)O)cc2)NC(=O)[C@H](Cc2c[nH]c3ccccc23)NC(=O)[C@H](CC(=O)O)NC(=O)[C@H](Cc2ccc(OCC(=O)O)cc2)NC(=O)[C@H]([C@@H](C)O)NC(=O)CSC[C@@H](C(=O)N[C@@H](CCN)C(=O)NCCOCCOCC(=O)NCCCCCCCCCCC(=O)O)NC(=O)[C@H](CC(N)=O)NC(=O)[C@H](C(C)C)NC(=O)[C@H](CC2CCCCC2)NC(=O)[C@H](CCN)NC1=O [Example 1393] ({CH2CO}-TY(Carboxymethyl)DWY(Carboxymethyl)[Bip]Y(Carboxymethyl)[NMeA][dL][Dab][Cha]VNC[Dab][AEEA][Aun]-OH; thioether N-14) | 7.48 |
| CC(C)C[C@H]1NC(=O)[C@H](C)N(C)C(=O)[C@H](Cc2ccc(OCC(=O)O)cc2)NC(=O)[C@H](Cc2ccc(-c3ccccc3)cc2)NC(=O)[C@H](Cc2ccc(OCC(=O)O)cc2)NC(=O)[C@H](Cc2c[nH]c3ccccc23)NC(=O)[C@H](CC(=O)O)NC(=O)[C@H](Cc2ccc(OCC(=O)O)cc2)NC(=O)[C@H]([C@@H](C)O)NC(=O)CSC[C@@H](C(=O)N[C@@H](CCCN)C(=O)NCCOCCOCC(=O)NCCCCCCCCCCC(=O)O)NC(=O)[C@H]([C@@H](C)O)NC(=O)[C@H](C(C)C)NC(=O)[C@H](CC2CCCCC2)NC(=O)[C@H](CCN)NC1=O [Example 1394] ({CH2CO}-TY(Carboxymethyl)DWY(Carboxymethyl)[Bip]Y(Carboxymethyl)[NMeA][dL][Dab][Cha]VTC[Orn][AEEA][Aun]-OH; thioether N-14) | 6.85 |
| CC(C)C[C@H]1NC(=O)[C@H](C)N(C)C(=O)[C@H](Cc2ccc(OCC(=O)O)cc2)NC(=O)[C@H](Cc2ccc(-c3ccccc3)cc2)NC(=O)[C@H](Cc2ccc(OCC(=O)O)cc2)NC(=O)[C@H](Cc2c[nH]c3ccccc23)NC(=O)[C@H](CC(=O)O)NC(=O)[C@H](Cc2ccc(OCC(=O)O)cc2)NC(=O)[C@H]([C@@H](C)O)NC(=O)CSC[C@@H](C(=O)N[C@@H](CCCN)C(=O)NCCOCCOCC(=O)NCCCCCCCCCCC(=O)O)NC(=O)[C@H](CO)NC(=O)[C@H](C(C)C)NC(=O)[C@H](CC2CCCCC2)NC(=O)[C@H](CCN)NC1=O [Example 1395] ({CH2CO}-TY(Carboxymethyl)DWY(Carboxymethyl)[Bip]Y(Carboxymethyl)[NMeA][dL][Dab][Cha]VSC[Orn][AEEA][Aun]-OH; thioether N-14) | 7.25 |

Other lines, results leading:

| pIC50 | SMILES |
| --- | --- |
| 6.52 | CC(C)C[C@H]1NC(=O)[C@H](C)N(C)C(=O)[C@H](Cc2ccc(OCC(=O)O)cc2)NC(=O)[C@H](Cc2ccc(-c3ccccc3)cc2)NC(=O)[C@H](Cc2ccc(OCC(=O)O)cc2)NC(=O)[C@H](Cc2c[nH]c3ccccc23)NC(=O)[C@H](CC(=O)O)NC(=O)[C@H](Cc2ccc(OCC(=O)O)cc2)NC(=O)[C@H]([C@@H](C)O)NC(=O)CSC[C@@H](C(=O)N[C@@H](CCCN)C(=O)NCCOCCOCC(=O)NCCCCCCCCCCC(=O)O)NC(=O)[C@H](CCC(=O)O)NC(=O)[C@H](C(C)C)NC(=O)[C@H](CC2CCCCC2)NC(=O)[C@H](CCN)NC1=O [Example 1396] ({CH2CO}-TY(Carboxymethyl)DWY(Carboxymethyl)[Bip]Y(Carboxymethyl)[NMeA][dL][Dab][Cha]VEC[Orn][AEEA][Aun]-OH; thioether N-14) |
| 6.91 | CC(C)C[C@H]1NC(=O)[C@H](C)N(C)C(=O)[C@H](Cc2ccc(OCC(=O)O)cc2)NC(=O)[C@H](Cc2ccc(-c3ccccc3)cc2)NC(=O)[C@H](Cc2ccc(OCC(=O)O)cc2)NC(=O)[C@H](Cc2c[nH]c3ccccc23)NC(=O)[C@H](CC(=O)O)NC(=O)[C@H](Cc2ccc(OCC(=O)O)cc2)NC(=O)[C@H]([C@@H](C)O)NC(=O)CSC[C@@H](C(=O)N[C@@H](CCCN)C(=O)NCCOCCOCC(=O)NCCCCCCCCCCC(=O)O)NC(=O)[C@H](CC(N)=O)NC(=O)[C@H](C(C)C)NC(=O)[C@H](CC2CCCCC2)NC(=O)[C@H](CCN)NC1=O [Example 1397] ({CH2CO}-TY(Carboxymethyl)DWY(Carboxymethyl)[Bip]Y(Carboxymethyl)[NMeA][dL][Dab][Cha]VNC[Orn][AEEA][Aun]-OH; thioether N-14) |
| 7.07 | CC(C)C[C@H]1NC(=O)[C@H](C)N(C)C(=O)[C@H](Cc2ccc(OCC(=O)O)cc2)NC(=O)[C@H](Cc2ccc(-c3ccccc3)cc2)NC(=O)[C@H](Cc2ccc(OCC(=O)O)cc2)NC(=O)[C@H](Cc2c[nH]c3ccccc23)NC(=O)[C@H](CC(=O)O)NC(=O)[C@H](Cc2ccc(OCC(=O)O)cc2)NC(=O)[C@H]([C@@H](C)O)NC(=O)CSC[C@@H](C(=O)N[C@@H](CCN)C(=O)NCCOCCOCC(=O)NCCCCCCCCCCC(=O)O)NC(=O)[C@H]([C@@H](C)O)NC(=O)[C@H](C(C)C)NC(=O)[C@H](CC2CCCCC2)NC(=O)[C@H](CCC(=O)O)NC1=O [Example 1398] ({CH2CO}-TY(Carboxymethyl)DWY(Carboxymethyl)[Bip]Y(Carboxymethyl)[NMeA][dL]E[Cha]VTC[Dab][AEEA][Aun]-OH; thioether N-14) |
| 7.16 | CC(C)C[C@H]1NC(=O)[C@H](C)N(C)C(=O)[C@H](Cc2ccc(OCC(=O)O)cc2)NC(=O)[C@H](Cc2ccc(-c3ccccc3)cc2)NC(=O)[C@H](Cc2ccc(OCC(=O)O)cc2)NC(=O)[C@H](Cc2c[nH]c3ccccc23)NC(=O)[C@H](CC(=O)O)NC(=O)[C@H](Cc2ccc(OCC(=O)O)cc2)NC(=O)[C@H]([C@@H](C)O)NC(=O)CSC[C@@H](C(=O)N[C@@H](CCN)C(=O)NCCOCCOCC(=O)NCCCCCCCCCCC(=O)O)NC(=O)[C@H](CO)NC(=O)[C@H](C(C)C)NC(=O)[C@H](CC2CCCCC2)NC(=O)[C@H](CCC(=O)O)NC1=O [Example 1399] ({CH2CO}-TY(Carboxymethyl)DWY(Carboxymethyl)[Bip]Y(Carboxymethyl)[NMeA][dL]E[Cha]VSC[Dab][AEEA][Aun]-OH; thioether N-14) |
